Results reported in ChEMBL document CHEMBL1201862, “PubChem BioAssay data set” (2004).
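The compound was tested at five concentrations on cells cultured in 96-well plates, with a 48-hour exposure period. GI50: concentration for 50% inhibition of growth.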 Activity calls are given as the source filed them. No stated cut-off is given here; in the data, active = GI50 up to about 1.1 µM and inactive = higher.

What was measured:
Test in all cases: DTP human tumour cell line panel, 48 h
[1] = system: COLO 205
[2] = system: IGROV-1
[3] = system: MOLT-4
[4] = system: LOX IMVI
[5] = system: A498
[6] = system: SNB-75
[7] = system: DU-145
[8] = system: MDA-N
[9] = system: TK-10
[10] = system: SK-MEL-28
[11] = system: SW-620
[12] = system: MDA-MB-231
[13] = system: OVCAR-5
[14] = system: MCF7
[15] = system: SNB-19
[16] = system: OVCAR-8
[17] = system: SF-295
[18] = system: UACC-257
[19] = system: RPMI-8226
[20] = system: T47D

Measured: GI50

O=C(N[C@H](CO)[C@H](O)c1ccc([N+](=O)[O-])cc1)C(Cl)Cl [CHLORAMPHENICOL]
inactive: [1] > 100 µM | [2] > 100 µM | [3] > 100 µM | [4] > 100 µM | [5] > 100 µM | [6] 98.2 µM | [7] > 100 µM | [8] > 100 µM | [9] > 100 µM | [10] > 100 µM | [11] > 100 µM | [12] 47.8 µM | [13] > 100 µM | [14] > 100 µM | [15] > 100 µM | [16] > 100 µM | [17] > 100 µM | [18] > 100 µM | [19] > 100 µM

CN(C)c1ccc2oc(=O)c3ccccc3c2c1
inactive: [1] > 100 µM | [2] 51.4 µM | [3] > 100 µM | [4] > 100 µM | [5] 34.8 µM | [6] 27.5 µM | [7] > 100 µM | [8] > 100 µM | [9] 39.7 µM | [10] > 100 µM | [11] > 100 µM | [12] 17.1 µM | [13] > 100 µM | [15] 23.1 µM | [16] > 100 µM | [17] 28.8 µM | [18] > 100 µM | [20] > 100 µM | [19] > 100 µM

COC(=O)c1ccccc1C1=C([N+](=O)[O-])C(c2ccccc2)C(C#N)=C(N)O1 (configuration not stated)
inactive: [1] 50.8 µM | [2] > 100 µM | [3] 35 µM | [4] > 100 µM | [6] 96.2 µM | [7] 72.1 µM | [8] > 100 µM | [9] > 100 µM | [10] > 100 µM | [11] 35.9 µM | [12] > 100 µM | [13] > 100 µM | [15] > 100 µM | [16] 32.1 µM | [17] > 100 µM | [18] > 100 µM | [20] 37.7 µM | [19] 34.5 µM

Cc1csc(N/C=C2\C(=O)Oc3ccccc3C2=O)n1
inactive: [1] 35 µM | [2] 24.7 µM | [3] 41 µM | [4] 22.1 µM | [6] 10.4 µM | [7] 29 µM | [8] 33.2 µM | [9] 17.1 µM | [11] 33.2 µM | [12] 20.2 µM | [13] 58.6 µM | [14] 25.9 µM | [15] 33.7 µM | [16] 32 µM | [18] 45.2 µM

CCCCCCCCCN1CCC(=O)C(C(=O)OC)C1 (configuration not stated)
inactive: [1] 15.1 µM | [3] 13.6 µM | [4] 12.5 µM | [5] 19 µM | [6] 17.9 µM | [7] 15.1 µM | [8] 16 µM | [9] 16.7 µM | [11] 11.9 µM | [13] 15.3 µM | [14] 12.3 µM | [16] 8.07 µM | [17] 17.3 µM | [18] 11 µM | [20] 10.4 µM | [19] 15.6 µM

N#CC(C#N)/N=N/c1ccc(-c2nc3ccccc3s2)cc1
inactive: [1] 4.04 µM | [2] 6 µM | [3] 1.33 µM | [4] 7 µM | [5] 11.1 µM | [6] 25.9 µM | [7] 5.79 µM | [8] 4.93 µM | [9] 3.98 µM | [10] 10.4 µM | [11] 4.79 µM | [13] 28 µM | [14] 4.53 µM | [16] 4.37 µM | [18] 3.1 µM | [20] 2.22 µM | [19] 1.51 µM

COC(=O)CNC(=O)C(CSC(=O)OCC1c2ccccc2-c2ccccc21)NC(=O)CCC(NC(=O)OCC1c2ccccc2-c2ccccc21)C(=O)OC (configuration not stated)
inactive: [1] 29.4 µM | [2] 17.8 µM | [3] 21.2 µM | [4] 3.27 µM | [7] > 100 µM | [8] 18.8 µM | [9] 36.7 µM | [10] 38.1 µM | [11] 55.2 µM | [12] 16.6 µM | [13] 25.6 µM | [14] 18.5 µM | [15] 23.8 µM | [16] 16.8 µM | [17] 17.4 µM | [18] 32.5 µM | [19] 23.1 µM

CC1(C)[C@@H](Cn2ccc(=O)[nH]c2=O)CC[C@@]1(C)CO
inactive: [1] > 100 µM | [4] > 100 µM | [5] > 100 µM | [6] > 100 µM | [7] > 100 µM | [8] > 100 µM | [9] > 100 µM | [10] > 100 µM | [11] > 100 µM | [12] > 100 µM | [13] > 100 µM | [15] > 100 µM | [17] > 100 µM | [18] > 100 µM | [20] > 100 µM

CCOC(=O)CC(=O)Nc1c(C(=O)OCC)sc2nc(SC)nc(Nc3ccc(OC)c(OC)c3)c12
inactive: [1] > 100 µM | [2] 28.7 µM | [4] 39.4 µM | [5] 28.9 µM | [6] 1.99 µM | [7] 39.7 µM | [8] > 100 µM | [9] 17.8 µM | [10] > 100 µM | [11] > 100 µM | [12] 18.5 µM | [13] 52.6 µM | [14] 38.2 µM | [16] 34.4 µM | [17] 7.59 µM | [18] > 100 µM

O=C(c1cccc2cc(O)ccc12)c1cn(CCN2CCOCC2)c2ccccc12
inactive: [1] 45.7 µM | [2] 20.3 µM | [3] 34.7 µM | [4] 20.6 µM | [7] 30.1 µM | [8] 25.2 µM | [9] 21.6 µM | [10] 42.6 µM | [11] 22.4 µM | [12] 19.5 µM | [13] 29.5 µM | [14] 25.5 µM | [15] 55.7 µM | [16] 31.6 µM | [18] 21.7 µM | [20] 38.3 µM | [19] 47.1 µM

Cc1cn([C@@H]2C[C@H](CO)[C@@H]2O)c(=O)[nH]c1=O
inactive: [1] > 100 µM | [2] > 100 µM | [3] > 100 µM | [4] > 100 µM | [5] > 100 µM | [6] > 100 µM | [7] > 100 µM | [8] > 100 µM | [9] > 100 µM | [10] > 100 µM | [11] > 100 µM | [12] > 100 µM | [13] > 100 µM | [14] > 100 µM | [16] > 100 µM | [17] > 100 µM | [18] > 100 µM | [19] > 100 µM
